Legend:
cells [1] = experiment: Cell Titer Blue % cell viable (24 hrs); format: cell-based; settings: 24 h, Conc 3.75 μM
Protocol: The viability of cells upon treatment was assessed by CellTiter-Blue® reagent following the manufacturer's protocol in RKO, UM10B, UM1, MCR5, and UMCC92 cells. Briefly, 10,000 cells were plated in 96-well plate in quadruplets. One day after seeding, cells were treated with a range of concentrations (0.1 to 30 micromolar). […] Only the viable cells convert the redox dye (reszurin) into a fluorescent product (resofurin). The emission of fluorescence (excitation 560 nm) was measured at […]. The IC50 value was calculated as the mean concentration of compounds required to inhibit cell proliferation as measured by the fluorescence at […] by 50 percent compared to the vehicle-treated controls.

UM1 cells = experiment: Clonogenic IC50, UM1; format: cell-based
786-0 = experiment: NCI 60 cell line screen, 786-0; format: cell-based, human; settings: Renal Cancer
Protocol: (§1) The activity of Compound 8C was tested against 60 different human tumor cell lines at the National Cancer Institute, using the standard NCI 60 screening protocol.

LOX IMVI = experiment: NCI 60 cell line screen, LOX IMVI; format: cell-based, human; settings: Melanoma
Protocol: as §1

MALME-3M = experiment: NCI 60 cell line screen, MALME-3M; format: cell-based, human; settings: Melanoma
Protocol: as §1

SK-MEL-28 = experiment: NCI 60 cell line screen, SK-MEL-28; format: cell-based, human; settings: Melanoma
Protocol: as §1

HT29 = experiment: NCI 60 cell line screen, HT29; format: cell-based, human; settings: Colon Cancer
Protocol: as §1

HCC-2998 = experiment: NCI 60 cell line screen, HCC-2998; format: cell-based, human; settings: Colon Cancer
Protocol: as §1

MDA-MB-468 = experiment: NCI 60 cell line screen, MDA-MB-468; format: cell-based, human; settings: Breast Cancer
Protocol: as §1

Microsomal half-life = format: in vitro ADME; settings: microsomes
[2] = Stability in mouse liver microsomes; format: in vitro ADME
cells [3] = experiment: Clonogenic cellular assay; format: cell-based
EGFR = experiment: EGF-induced EGFR dimerization and EGFR degradation in PC9-AZR cells; format: cell-based; settings: 1 μM, 1 hour, then EGF 30 ng/ml
Protocol: It was determined if the response to Compound 8C correlates with inhibition of EGF-induced dimerization and degradation of EGFR. For this, PC9-AZR cells were treated for 1 hour with 1 μM Compound 8C and an additional 30 minutes with EGF (30 ng/ml) and 30 minutes with disuccinimidyl suberate (DSS, 150 μM) to cross-link interacting proteins. Lysates were prepared and immunoblotted with anti-EGFR antibodies.

UMSCC74B = UMSCC74B head and neck tumor model, daily for one week; format: in vivo
Protocol: Efficacy testing of Compound 8C in UMSCC74B, an EGFR driven, aggressive tumor model of the head and neck. Tumor bearing mice were treated with 30 mg/kg dose daily (Monday-Friday) for one week. This dose was selected based on single dose PK profile (see FIG. 8A). This treatment was safe and produced significant tumor growth delay (see FIG. 10).
Nude mice bearing either UMSCC74B ([…]) were treated with (30 mg/kg, daily for one week) or with vehicle (5% DMSO in PBS). Each group had at least 5 mice. Tumor volume and body weight was recorded 3-4 times a week, and change in the average tumor volume with time is plotted. The average loss in body weight during treatment was less than 10%. Error bar represents standard error of the mean.
For the Compound 8C treatment group, day 0 is defined as the first day of treatment. In vehicle control mice, day 0 was defined as the day when the tumor volume was closest to the mean tumor volume in Compound 8C treatment groups on the day of treatment initiation. To assess whether tumor volume growth rates differed by treatment, mixed effect models were fit with random intercept terms at the mouse levels to account for correlated outcomes over time within a tumor and between 2 tumors within a mouse. Monotherapy elicited a significant reduction in tumor growth rate after one week of dosing (see FIG. 10).

Preliminary safety test = format: in vivo, C57BL6 mice; settings: daily dose of 30 mg/kg for one week
Protocol: A preliminary test on the safety of a daily dose of 30 mg/kg for one week was performed using C57BL6 mice. The overall health and weight of a group of 6 mice was monitored during treatment. A modest loss of 3.5±2.4% body weight after one week of treatment was observed, but mice fully recovered the weight 2-days after treatment cessation.

## CN1CCC2(CC1)N=C(SCC(=O)Nc1cnc3ccccc3c1)C(c1ccc(Br)cc1)=N2 [Compound 8C, 2-((3-(4-bromophenyl)-8-methyl-1,4,8-triazaspiro[4.5]deca-1,3-dien-2-yl)thio)-N-(quinolin-3-yl)acetamide]
Cells [1]
  viability at 3.75 µM: 68%
UM1 cells
  IC50: 0.5 µM
786-0
  Percent Growth: −81.7%
LOX IMVI
  Percent Growth: −78.5%
MALME-3M
  Percent Growth: −75.5%
SK-MEL-28
  Percent Growth: −70.1%
HT29
  Percent Growth: −67.1%
HCC-2998
  Percent Growth: −51.3%
MDA-MB-468
  Percent Growth: −43.8%
Microsomal half-life
  half-life: > 46 min
[2]
  stability compared to pre lead (C95): approximately 20 times
Cells [3]
  IC50 in the clonogenic cellular assay: sub-micromolar
EGFR
  EGFR dimerization and degradation of EGFR: can inhibit EGFR dimerization and induce degradation of EGFR
UMSCC74B; 30 mg/kg dose daily (Monday-Friday) for one week
  safety of treatment: safe
UMSCC74B; 30 mg/kg, daily for one week
  average loss in body weight during treatment: less than 10%
UMSCC74B; 30 mg/kg, daily for one week, vs time-matched control (p=0.013) and overall control (p<0.001)
  tumor growth rates: significantly lower
Preliminary safety test
  loss of body weight after one week of treatment: 3.5±2.4%
  time to full weight recovery after treatment cessation: 2 days
